# Assay results reported in patent US20140249135A1, “PIM KINASE INHIBITORS AND METHODS OF THEIR USE” (NOVARTIS AG, priority 2007, published 2014).
# Read-outs that look alike come from different tables or passages of the source.
# What was measured:
# Type in all cases: biochemical
# [1] = molecular target: Pim1 kinase (Homo sapiens, UniProt P11309); experiment: Pim1 ATP depletion assay; settings: Pim1 ATP depletion assay;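 also: Luciferase-luciferin luminescence readout of residual ATP after PIM1 transfers phosphate to a peptide substrate, 40 µM ATP added, reaction run to roughly half ATP consumption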
# Pim1 kinase, sequence (P11309 whole entry): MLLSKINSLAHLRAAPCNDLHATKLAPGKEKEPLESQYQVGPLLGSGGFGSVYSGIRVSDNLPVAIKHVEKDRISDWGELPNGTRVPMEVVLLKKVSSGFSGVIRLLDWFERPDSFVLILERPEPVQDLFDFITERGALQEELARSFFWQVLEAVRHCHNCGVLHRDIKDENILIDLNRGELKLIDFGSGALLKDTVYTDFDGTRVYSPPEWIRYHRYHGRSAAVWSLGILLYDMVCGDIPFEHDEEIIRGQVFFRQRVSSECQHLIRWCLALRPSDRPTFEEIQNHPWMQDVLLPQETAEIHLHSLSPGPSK
# [2] = molecular target: Pim3 kinase (Homo sapiens, UniProt Q86V86); experiment: Pim3 ATP depletion assay
# [3] = molecular target: Pim2 kinase (Homo sapiens, UniProt Q9P1W9); experiment: Pim2 ATP depletion assay;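 also: Luciferase-based luminescent readout of ATP remaining after PIM2 phosphorylates a BAD peptide, final 5 nM enzyme, 4 µM ATP, 10 µM peptide, 2.5% DMSO, run to roughly half ATP consumption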
# Pim2 kinase, sequence (Q9P1W9 whole entry): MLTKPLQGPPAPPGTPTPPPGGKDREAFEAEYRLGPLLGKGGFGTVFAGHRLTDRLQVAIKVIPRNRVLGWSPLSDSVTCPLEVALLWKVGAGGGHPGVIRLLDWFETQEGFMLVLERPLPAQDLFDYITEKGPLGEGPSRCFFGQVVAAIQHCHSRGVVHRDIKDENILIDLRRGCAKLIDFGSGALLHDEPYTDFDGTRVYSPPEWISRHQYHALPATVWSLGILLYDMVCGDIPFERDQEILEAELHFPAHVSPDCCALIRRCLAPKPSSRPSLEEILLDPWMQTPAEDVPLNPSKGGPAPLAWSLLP
IC50 ([1]; read-out: IC50 (μM) PIM1) [µM],IC50 ([2]; read-out: IC50 (μM) PIM3) [µM],IC50 ([3]; read-out: IC50 (μM) PIM2) [µM],IC50 ([1]; read-out: PIM1 IC50) [µM],IC50 ([2]; read-out: PIM3 IC50) [µM],IC50 ([3]; read-out: PIM2 IC50) [µM],Compound
–,–,–,< 1,< 1,< 1,"CC(C)Oc1cncc(-c2ccc(N)c(C(=O)Nc3cnccc3N3CCC[C@H](N)C3)n2)n1 [Example 748, 3-Amino-6-(6-isopropoxy-pyrazin-2-yl)-pyridine-2-carboxylic acid (3-amino-3,4,5,6-tetrahydro-2H-[1,4′]bi-pyridinyl-3′-yl)-amide]"
–,–,–,< 1,< 1,< 1,"Nc1ccc(C23CC4CC(CC(C4)C2)C3)nc1C(=O)Nc1cnccc1N1CCC[C@H](N)C1 [Example 645, 6-Adamantan-1-yl-3-amino-pyridine-2-carboxylic acid (3-amino-3,4,5,6-tetrahydro-2H-[1,4′]bipyridinyl-3′-yl)-amide]"
–,–,–,< 1,< 1,< 1,"Nc1ccc(-c2cncc3ccccc23)nc1C(=O)Nc1cnccc1N1CCC[C@H](N)C1 [Example 692, 3-Amino-6-isoquinolin-4-yl-pyridine-2-carboxylic acid (3-amino-3,4,5,6-tetrahydro-2H-[1,4′]bipyridinyl-3′-yl)-amide]"
–,–,–,< 1,< 1,< 1,"CC(C)Oc1ccc(F)c(-c2ccc(N)c(C(=O)Nc3cnccc3N3CC[C@@H](O)[C@H](N)C3)n2)c1F (stereo in doubt) [Example 665, 3-Amino-6-(2,6-difluoro-3-isopropoxy-phenyl)-pyridine-2-carboxylic acid (3-amino-4-hydroxy-3,4,5,6-tetrahydro-2H-[1,4′]bipyridinyl-3′-yl)-amide]"

# More lines, now with the values behind:
Compound,IC50 ([1]; read-out: IC50 (μM) PIM1) [µM],IC50 ([2]; read-out: IC50 (μM) PIM3) [µM],IC50 ([3]; read-out: IC50 (μM) PIM2) [µM],IC50 ([1]; read-out: PIM1 IC50) [µM],IC50 ([2]; read-out: PIM3 IC50) [µM],IC50 ([3]; read-out: PIM2 IC50) [µM]
"Nc1ccc(-c2ccc(S(N)(=O)=O)cc2)nc1C(=O)Nc1cnccc1N1CCC[C@H](N)C1 [Example 480, 3-Amino-6-(4-sulfamoyl-phenyl)-pyridine-2-carboxylic acid (3-amino-3,4,5,6-tetrahydro-2H-[1,4′]bipyridinyl-3′-yl)-amide]",< 1,< 1,< 1,–,–,–
"CCC(CC)c1ccc(N)c(C(=O)Nc2cnccc2N2CCC[C@H](N)C2)n1 [Example 634, 3-Amino-6-(1-ethyl-propyl)-pyridine-2-carboxylic acid (3-amino-3,4,5,6-tetrahydro-2H-[1,4′]bipyridinyl-3′-yl)-amide]",–,–,–,< 1,< 1,< 1
"Cc1nc(N)cc(-c2ccncc2NC(=O)c2nc(-c3ccccc3F)ncc2N)n1 [Example 272, 5-Amino-2-(2-fluoro-phenyl)-pyrimidine-4-carboxylic acid [4-(6-amino-2-methyl-pyrimidin-4-yl)-pyridin-3-yl]-amide]",< 1,< 1,< 1,–,–,–
"Nc1ccc(-c2c(F)cccc2F)nc1C(=O)Nc1cnccc1N1CC(N)CC(C(F)(F)F)C1 (stereo not drawn) [Example 282, 3-Amino-6-(2,6-difluoro-phenyl)-pyridine-2-carboxylic acid (3-amino-5-trifluoromethyl-3,4,5,6-tetrahydro-2H-[1,4′]bi-pyridinyl-3′-yl)-amide]",< 1,< 1,< 1,–,–,–
"Nc1ccc(-c2c(F)cccc2F)nc1C(=O)Nc1cnccc1N1CCCCCC1 [Example 169, 3-Amino-6-(2,6-difluoro-phenyl)-pyridine-2-carboxylic acid (4-azepan-1-yl-pyridin-3-yl)-amide]",< 1,< 1,< 1,–,–,–
"N[C@H]1CCCN(c2ccncc2NC(=O)c2ccnc(-c3ccccc3F)n2)C1 [Example 250, N-{4-[(3S)-3-aminopiperidin-1-yl]pyridin-3-yl}-2-(2-fluoro-phenyl)pyrimidine-4-carbox-amide]",< 1,< 1,< 1,–,–,–
"Cc1cnccc1-c1ccncc1NC(=O)c1nc(-c2ccccc2F)ccc1N [Example 613, 3-amino-6-(2-fluorophenyl)-N-(3′-methyl-4,4′-bipyridin-3-yl)pyridine-2-carboxamide]",–,–,–,< 1,< 1,< 1
